“And” between values parts separate entries of the source, which are not always exact repeats. Equal entries are not always repeated.
Key:
Conditions in all cases: repeat exposure
HC6X = assay: Repeated-exposure DILI training compounds, resazurin conversion, HC6X
Procedure, shortened: (§1)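 PSC-derived hepatocyte-like cells were differentiated in 384-well plates, and drugs were added after 8 h of attachment. Viability was measured by resazurin conversion and related to therapeutic Cmax values, with untreated wells as negative control.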

HC3X = assay: Repeated-exposure DILI training compounds, resazurin conversion, HC3X
Procedure, shortened: as §1

HLC = assay: Repeated-exposure DILI training compounds, resazurin conversion, HLC
Procedure, shortened: as §1

HepG2 = assay: Repeated-exposure DILI training compounds, resazurin conversion, HepG2
Procedure, shortened: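 PSC-derived cells differentiated in 384-well format, plus HepG2 seeded at 40,000 cells/well, received drugs after 8 h of attachment; untreated wells served as negative controls. Viability was measured by resazurin conversion and related to therapeutic Cmax values.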

In the case of `CN(C)C(=N)N=C(N)N` [metformin], the “% resazurin conversion” value (HC6X; HC6X AAGLY D40, 3 uM) is reported as 75.6% and 127.9% and 120.9% and 66.8% and 78.3% and 77.4%, the “% resazurin conversion” value (HC6X; HC6X AAGLY D40, 10 uM) is reported as 91.8% and 85.1% and 137.3% and 90.8% and 71.9% and 90% and the “% resazurin conversion” value (HC6X; HC6X AAGLY D40, 30 uM) is reported as 64% and 86.6% and 97% and 73.8% and 121% and 127.4%. The “% resazurin conversion” value (HC6X; HC6X AAGLY D40, 50 uM) was 73.2% and 144.6% and 104.7% and 102.8% and 73.1% and 92.5%, the “% resazurin conversion” value (HC6X; HC6X AAGLY D40, 100 uM) was 106.4% and 149.7% and 103.6% and 154.2% and 106.5% and 116.8% and the “% resazurin conversion” value (HC6X; HC6X AAGLY D40, 300 uM) was 112.1% and 78.2% and 96.7% and 122.1% and 97.1% and 124%. For the same molecule, the “% resazurin conversion” value (HC6X; HC6X AAGLY D40, 1200 uM) was 183.8% and 127.4% and 126.7% and 100% and 123.1%, the “% resazurin conversion” value (HC6X; HC6X AAGLY D40 Remove dox, 3 uM) was 170.2% and 195.5% and 109.9% and 145.7% and 191.7% and 155.1% and the “% resazurin conversion” value (HC6X; HC6X AAGLY D40 Remove dox, 5 uM) was 151.1% and 130.1% and 149.6% and 123.6% and 100% and 119.7%. For the same molecule, the “% resazurin conversion” value (HC6X; HC6X AAGLY D40 Remove dox, 10 uM) was 137.7% and 116.6% and 122.1% and 87.2% and 162.4%, the “% resazurin conversion” value (HC6X; HC6X AAGLY D40 Remove dox, 30 uM) was 189% and 104.3% and 104.5% and 116.4% and 109.9% and 115% and the “% resazurin conversion” value (HC6X; HC6X AAGLY D40 Remove dox, 50 uM) was 175.2% and 137% and 132.8% and 158.7% and 156.7% and 106.3%. For the same molecule, the “% resazurin conversion” value (HC6X; HC6X AAGLY D40 Remove dox, 100 uM) was 169.7% and 178.1% and 127.2% and 203.2% and 156.7% and 201.6%, the “% resazurin conversion” value (HC6X; HC6X AAGLY D40 Remove dox, 300 uM) was 161.6% and 125.1% and 195.3% and 144.9% and 140.1% and the “% resazurin conversion” value (HC6X; HC6X AAGLY D40 Remove dox, 600 uM) was 164.3% and 170.2% and 157.3% and 178.7% and 172.2% and 213.4%. For the same molecule, the “% resazurin conversion” value (HC6X; HC6X AAGLY D40 Remove dox, 1200 uM) was 129.6% and 183.1% and 151.5% and 181.6% and 201.4% and 154.1%, the “% resazurin conversion” value (HC3X; HC3X AAGLY D40, 3 uM) was 107.4% and 112.9% and 102.8% and 86.5% and 93.5% and 86.7% and the “% resazurin conversion” value (HC3X; HC3X AAGLY D40, 5 uM) was 117.3% and 115.7% and 110.3% and 104.4% and 106.7% and 61.4%. For the same molecule, the “% resazurin conversion” value (HC3X; HC3X AAGLY D40, 10 uM) was 108.5% and 87.5% and 112.1% and 74.4% and 97.6% and 102.3%, the “% resazurin conversion” value (HC3X; HC3X AAGLY D40, 30 uM) was 105.4% and 101.2% and 96.4% and 131.5% and 86.6% and 96.2% and the “% resazurin conversion” value (HC3X; HC3X AAGLY D40, 50 uM) was 110.2% and 114.4% and 75% and 103.1% and 92.6% and 99.9%. The “% resazurin conversion” value (HC3X; HC3X AAGLY D40, 300 uM) was 121.9% and 148% and 124.4% and 102.2% and 122.5% and 91.9%, the “% resazurin conversion” value (HC3X; HC3X AAGLY D40, 600 uM) was 150.2% and 156.7% and 145.2% and 144.4% and 152.7% and 115% and the “% resazurin conversion” value (HC3X; HC3X AAGLY D40, 1200 uM) was 124.1% and 158.2% and 141.5% and 92.2% and 126.1% and 100%. The “% resazurin conversion” value (HLC; HLC AAGLY D40, 3 uM) was 117.8% and 180.2% and 192.1% and 138.7% and 131.9% and 161.2%, the “% resazurin conversion” value (HLC; HLC AAGLY D40, 10 uM) was 85.1% and 137.4% and 97.3% and 121% and 128.3% and 141.7% and the “% resazurin conversion” value (HLC; HLC LDM D40, 3 uM) was 115.5% and 119.8% and 128.3% and 105.8% and 132.2% and 110.8%. For the same molecule, the “% resazurin conversion” value (HLC; HLC LDM D40, 10 uM) was 112.2% and 115.2% and 101.7% and 107.6% and 122.7% and 95.8%, the “% resazurin conversion” value (HLC; HLC LDM D40, 30 uM) was 101.1% and 127.7% and 123.7% and 100.6% and 111.7% and 97.3% and the “% resazurin conversion” value (HLC; HLC LDM D40, 50 uM) was 69.5% and 123.5% and 118.7% and 111% and 112.5% and 97.1%. For the same molecule, the “% resazurin conversion” value (HLC; HLC LDM D40, 100 uM) was 130.3% and 131.7% and 140% and 109.2% and 99.5% and 135.5%, the “% resazurin conversion” value (HLC; HLC LDM D40, 300 uM) was 131.8% and 130.1% and 119.9% and 132.8% and 107.9% and 132.1% and the “% resazurin conversion” value (HLC; HLC LDM D40, 600 uM) was 142.1% and 137.1% and 121.7% and 130.5% and 134.1% and 94.8%. The “% resazurin conversion” value (HLC; HLC LDM D40, 1200 uM) was 117% and 113% and 129.7% and 145.7% and 140.5% and 102.5%, the “% resazurin conversion” value (HepG2; HepG2 AAGLY D30, 3 uM) was 106.5% and 83.4% and 85.8% and 89.2% and 108.4% and 105.4% and the “% resazurin conversion” value (HepG2; HepG2 AAGLY D30, 5 uM) was 88% and 69.4% and 79.7% and 91.5% and 76.9% and 122.8%. The “% resazurin conversion” value (HepG2; HepG2 AAGLY D30, 10 uM) was 92.9% and 78.4% and 78.2% and 87.4% and 93.3%, the “% resazurin conversion” value (HepG2; HepG2 AAGLY D30, 30 uM) was 87% and 68% and 60.1% and 90.4% and 65.8% and 86.5% and the “% resazurin conversion” value (HepG2; HepG2 AAGLY D30, 50 uM) was 88% and 78.4% and 75.6% and 85.4% and 68.8% and 94.1%. The “% resazurin conversion” value (HepG2; HepG2 AAGLY D30, 100 uM) was 77.9% and 69.4% and 77.6% and 78.3% and 71.2% and 86.1%, the “% resazurin conversion” value (HepG2; HepG2 AAGLY D30, 300 uM) was 86.3% and 86.2% and 78.9% and 85.6% and 74.5% and 86.7% and the “% resazurin conversion” value (HepG2; HepG2 AAGLY D30, 600 uM) was 84.6% and 71.8% and 75.9% and 95.3% and 64.4% and 77.4%. The “% resazurin conversion” value (HepG2; HepG2 AAGLY D30, 1200 uM) was 73.9% and 67.2% and 67.9% and 98.6% and 62.2% and 57.6%, the “% resazurin conversion” value (HepG2; HepG2 CTL D7, 3 uM) was 101.7% and the “% resazurin conversion” value (HepG2; HepG2 CTL D7, 5 uM) was 111.2% and 104.6% and 117.2% and 107.8% and 111% and 112.7%. For the same molecule, the “% resazurin conversion” value (HepG2; HepG2 CTL D7, 10 uM) was 105.8% and 104.6% and 92.9% and 101.2% and 94.9% and 100.3%, the “% resazurin conversion” value (HepG2; HepG2 CTL D7, 30 uM) was 99.1% and 100.4% and 105.9% and 109.1% and 102.2% and the “% resazurin conversion” value (HepG2; HepG2 CTL D7, 50 uM) was 97.6% and 97.7% and 100.3% and 99.5% and 102% and 100.6%. The “% resazurin conversion” value (HepG2; HepG2 CTL D7, 100 uM) was 101.5% and 103.6% and 107.4% and 101.8% and 103.4% and 105%, the “% resazurin conversion” value (HepG2; HepG2 CTL D7, 300 uM) was 89.7% and 83.5% and 88.5% and 95.8% and 93.1% and 96.3% and the “% resazurin conversion” value (HepG2; HepG2 CTL D7, 600 uM) was 92.6% and 88.6% and 89.1% and 90.3% and 94.1% and 93.8%. For the same molecule, the “% resazurin conversion” value (HepG2; HepG2 CTL D7, 1200 uM) was 80.9% and 84% and 84.2% and 85.5% and 84.4%.

— paper PMC7069944, “Amino acid levels determine metabolism and CYP450 function of hepatocytes and hepatoma cell lines” (Nature Communications, 2020)
